Results taken from US9387202B2, “Pyridone amides and analogs exhibiting anti-cancer and anti-proliferative activities” (priority 2011, dated 2016).

Experiments:
[1] = target: T1, Phospho-MET in MKN-45 cells (Homo sapiens, UniProt P08581); test: MKN-45 Phospho-MET ELISA; assay type: cell-based
T1 construct: host or cells: MKN-45
Procedure: (§1) MKN-45 cells (catalog #JCRB0254) were obtained from the Japan Health Science Research Resources Bank, Osaka, Japan. Briefly, cells were grown in RPMI 1640 media supplemented with 10% characterized fetal bovine serum (Invitrogen, Carlsbad, Calif.) at 37° C., 5% CO2, 95% humidity. Cells were allowed to expand until reaching 70-95% confluency at which point they were subcultured or harvested for assay use.
Twenty-five thousand cells in RPMI-1640 supplemented with 10% characterized fetal bovine serum (Invitrogen, Carlsbad, Calif.) were added per well in a 96-well black clear bottom plate (Corning, Corning, N.Y.). Cells were then incubated overnight at 37 degrees Celsius, 5% CO2, 95% humidity. Media was then aspirated and cells were washed with PBS. A serial dilution of test compound was dispensed into another 96-well black clear bottom plate (Corning, Corning, N.Y.) containing serum-free RPMI-1640. Compound was added to plates containing cells and incubated for 6 hours at 37 degrees Celsius, 5% CO2, 95% humidity. Cells were stimulated with 40 ng/mL HGF (R&D Systems, Minneapolis, Minn.) for 10 minutes, and then lysed. Phospho-MET in cell lysates was detected using the DuoSet IC Human Phospho-HGF R/c-MET ELISA (R&D Systems, Minneapolis, Minn.). Data was analyzed using Prism software (Graphpad, San Diego, Calif.) to calculate IC50 values.

[2] = target: T2, c-MET kinase (Seq. ID No. 2), cMET WT (Homo sapiens, UniProt P08581); test: c-MET kinase assay (WT MET biochemical assay); conditions: for Fold potency decrease versus Example 1, cMET WT: relative to Example 1 = 1; for Fold potency decrease versus Example 2, cMET WT: relative to Example 2 = 1
T2 construct: c-MET (c-MET residues: 956-1390, from Invitrogen, catalogue #PV3143, 6 nM); purchased Invitrogen PV3143
T2 sequence (P08581 with tags, fused parts or gaps): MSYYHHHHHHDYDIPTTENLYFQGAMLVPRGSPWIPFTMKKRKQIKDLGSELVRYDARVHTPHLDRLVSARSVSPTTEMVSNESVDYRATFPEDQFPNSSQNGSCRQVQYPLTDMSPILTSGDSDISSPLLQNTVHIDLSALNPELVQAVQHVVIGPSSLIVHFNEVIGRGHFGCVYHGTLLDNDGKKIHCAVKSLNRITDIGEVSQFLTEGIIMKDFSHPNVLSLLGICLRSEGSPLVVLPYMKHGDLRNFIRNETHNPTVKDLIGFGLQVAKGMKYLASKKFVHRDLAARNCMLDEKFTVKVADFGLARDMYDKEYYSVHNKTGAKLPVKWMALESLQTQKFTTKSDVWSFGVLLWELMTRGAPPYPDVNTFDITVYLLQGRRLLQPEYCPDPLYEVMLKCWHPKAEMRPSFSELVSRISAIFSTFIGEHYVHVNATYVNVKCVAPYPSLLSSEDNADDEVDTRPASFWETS
Procedure: Activity of c-MET kinase (Seq. ID No. 2) was determined by following the production of ADP from the kinase reaction through coupling with the pyruvate kinase/lactate dehydrogenase system (e.g., Schindler et al. Science 2000, 289, pp. 1938-1942). In this assay, the oxidation of NADH (thus the decrease at A340 nm) was continuously monitored spectrophotometrically. The reaction mixture (100 μl) contained c-MET (c-MET residues: 956-1390, from Invitrogen, catalogue #PV3143, 6 nM), polyE4Y (1 mg/mL), MgCl2 (10 mM), pyruvate kinase (4 units), lactate dehydrogenase (0.7 units), phosphoenol pyruvate (1 mM), and NADH (0.28 mM) in 90 mM Tris buffer containing 0.25 mM DTT, 0.2% octyl-glucoside and 1% DMSO, pH 7.5. Test compounds were incubated with c-MET (Seq. ID No. 2) and other reaction reagents at 22° C. for 0.5 h before ATP (100 μM) was added to start the reaction. The absorption at 340 nm was monitored continuously for 2 hours at 30° C. on Polarstar Optima plate reader (BMG). The reaction rate was calculated using the 1.0 to 2.0 h time frame. Percent inhibition was obtained by comparison of reaction rate with that of a control (i.e., with no test compound). IC50 values were calculated from a series of percent inhibition values determined at a range of inhibitor concentrations using software routines as implemented in the GraphPad Prism software package.

MET (Y1248C) Mutant = MET (Y1248C) Mutant (Homo sapiens, UniProt P08581, Y1230C); test: Mutant MET kinase biochemical assay, Y1248C; conditions: for Fold potency decrease versus Example 1, MET (Y1248C) Mutant: relative to Example 1 = 1; for Fold potency decrease versus Example 2, MET (Y1248C) Mutant: relative to Example 2 = 1
MET (D1246N) Mutant = MET (D1246N) Mutant (Homo sapiens, UniProt P08581, D1228N); test: Mutant MET kinase biochemical assay, D1246N; conditions: for Fold potency decrease versus Example 1, MET (D1246N) Mutant: relative to Example 1 = 1; for Fold potency decrease versus Example 2, MET (D1246N) Mutant: relative to Example 2 = 1
MET (Y1248H) Mutant = MET (Y1248H) Mutant (Homo sapiens, UniProt P08581, Y1230H); test: Mutant MET kinase biochemical assay, Y1248H; conditions: for Fold potency decrease versus Example 1, MET (Y1248H) Mutant: relative to Example 1 = 1; for Fold potency decrease versus Example 2, MET (Y1248H) Mutant: relative to Example 2 = 1
MET (D1246H) Mutant = MET (D1246H) Mutant (Homo sapiens, UniProt P08581, D1228H); test: Mutant MET kinase biochemical assay, D1246H; conditions: for Fold potency decrease versus Example 1, MET (D1246H) Mutant: relative to Example 1 = 1; for Fold potency decrease versus Example 2, MET (D1246H) Mutant: relative to Example 2 = 1
MET (D1246H) Mutant, sequence (P08581 25-1408 isoform P08581-2 D1246H limits assumed): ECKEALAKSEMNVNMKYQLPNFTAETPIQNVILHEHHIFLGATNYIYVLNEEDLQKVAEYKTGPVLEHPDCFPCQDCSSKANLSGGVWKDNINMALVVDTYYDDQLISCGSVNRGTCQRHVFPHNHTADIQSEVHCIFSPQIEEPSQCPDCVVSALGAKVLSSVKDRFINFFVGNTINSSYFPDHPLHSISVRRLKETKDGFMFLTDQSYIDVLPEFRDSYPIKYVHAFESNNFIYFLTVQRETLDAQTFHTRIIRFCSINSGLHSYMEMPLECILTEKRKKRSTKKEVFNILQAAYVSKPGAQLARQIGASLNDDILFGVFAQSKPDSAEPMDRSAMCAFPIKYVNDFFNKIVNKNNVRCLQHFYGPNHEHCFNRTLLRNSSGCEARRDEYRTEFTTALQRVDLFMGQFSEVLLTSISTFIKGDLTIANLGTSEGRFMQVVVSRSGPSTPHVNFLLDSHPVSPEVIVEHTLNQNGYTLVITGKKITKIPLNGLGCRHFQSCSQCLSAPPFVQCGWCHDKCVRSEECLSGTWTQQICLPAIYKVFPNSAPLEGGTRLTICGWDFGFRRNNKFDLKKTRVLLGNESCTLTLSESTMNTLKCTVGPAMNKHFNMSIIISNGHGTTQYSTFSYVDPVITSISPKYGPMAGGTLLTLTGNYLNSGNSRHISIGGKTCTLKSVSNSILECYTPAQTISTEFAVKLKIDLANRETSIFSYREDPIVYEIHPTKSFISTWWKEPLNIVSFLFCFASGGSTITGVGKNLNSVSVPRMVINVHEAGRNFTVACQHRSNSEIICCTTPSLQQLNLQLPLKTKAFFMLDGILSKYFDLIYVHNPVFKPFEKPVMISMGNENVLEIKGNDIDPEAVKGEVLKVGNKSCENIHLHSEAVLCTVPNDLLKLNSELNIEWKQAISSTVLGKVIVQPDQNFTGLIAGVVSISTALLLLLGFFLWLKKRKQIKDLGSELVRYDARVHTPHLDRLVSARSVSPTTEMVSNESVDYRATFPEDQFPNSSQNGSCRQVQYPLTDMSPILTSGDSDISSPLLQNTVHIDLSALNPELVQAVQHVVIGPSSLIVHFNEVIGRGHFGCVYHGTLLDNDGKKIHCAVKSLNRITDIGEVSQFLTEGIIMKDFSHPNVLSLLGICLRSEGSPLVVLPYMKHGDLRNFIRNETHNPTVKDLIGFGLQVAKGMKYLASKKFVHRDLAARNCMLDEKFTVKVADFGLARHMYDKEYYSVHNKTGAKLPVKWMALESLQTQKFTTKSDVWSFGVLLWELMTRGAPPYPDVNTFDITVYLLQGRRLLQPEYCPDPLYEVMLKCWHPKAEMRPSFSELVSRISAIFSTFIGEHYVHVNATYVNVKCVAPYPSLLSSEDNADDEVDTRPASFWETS

[3] = tested on: oncogenic Mutant MET kinase; test: various oncogenic Mutant MET kinase biochemical assays (summarised); conditions: range over columns 3-6; for Fold less potent than Example 1 in the various oncogenic Mutant MET kinase biochemical assays: relative to Example 1; for Fold less potent than Example 2 in the various oncogenic Mutant MET kinase biochemical assays: relative to Example 2
A549 cells = test: A549 HGF-stimulated MET-dependent cell migration assay; assay type: cell-based
[4] = target: T3, Phospho-MET in EBC-1 cells (Homo sapiens, UniProt P08581); test: EBC-1 Phospho-MET ELISA; assay type: cell-based
T3 construct: host or cells: EBC-1
T3 sequence (P08581 25-1390): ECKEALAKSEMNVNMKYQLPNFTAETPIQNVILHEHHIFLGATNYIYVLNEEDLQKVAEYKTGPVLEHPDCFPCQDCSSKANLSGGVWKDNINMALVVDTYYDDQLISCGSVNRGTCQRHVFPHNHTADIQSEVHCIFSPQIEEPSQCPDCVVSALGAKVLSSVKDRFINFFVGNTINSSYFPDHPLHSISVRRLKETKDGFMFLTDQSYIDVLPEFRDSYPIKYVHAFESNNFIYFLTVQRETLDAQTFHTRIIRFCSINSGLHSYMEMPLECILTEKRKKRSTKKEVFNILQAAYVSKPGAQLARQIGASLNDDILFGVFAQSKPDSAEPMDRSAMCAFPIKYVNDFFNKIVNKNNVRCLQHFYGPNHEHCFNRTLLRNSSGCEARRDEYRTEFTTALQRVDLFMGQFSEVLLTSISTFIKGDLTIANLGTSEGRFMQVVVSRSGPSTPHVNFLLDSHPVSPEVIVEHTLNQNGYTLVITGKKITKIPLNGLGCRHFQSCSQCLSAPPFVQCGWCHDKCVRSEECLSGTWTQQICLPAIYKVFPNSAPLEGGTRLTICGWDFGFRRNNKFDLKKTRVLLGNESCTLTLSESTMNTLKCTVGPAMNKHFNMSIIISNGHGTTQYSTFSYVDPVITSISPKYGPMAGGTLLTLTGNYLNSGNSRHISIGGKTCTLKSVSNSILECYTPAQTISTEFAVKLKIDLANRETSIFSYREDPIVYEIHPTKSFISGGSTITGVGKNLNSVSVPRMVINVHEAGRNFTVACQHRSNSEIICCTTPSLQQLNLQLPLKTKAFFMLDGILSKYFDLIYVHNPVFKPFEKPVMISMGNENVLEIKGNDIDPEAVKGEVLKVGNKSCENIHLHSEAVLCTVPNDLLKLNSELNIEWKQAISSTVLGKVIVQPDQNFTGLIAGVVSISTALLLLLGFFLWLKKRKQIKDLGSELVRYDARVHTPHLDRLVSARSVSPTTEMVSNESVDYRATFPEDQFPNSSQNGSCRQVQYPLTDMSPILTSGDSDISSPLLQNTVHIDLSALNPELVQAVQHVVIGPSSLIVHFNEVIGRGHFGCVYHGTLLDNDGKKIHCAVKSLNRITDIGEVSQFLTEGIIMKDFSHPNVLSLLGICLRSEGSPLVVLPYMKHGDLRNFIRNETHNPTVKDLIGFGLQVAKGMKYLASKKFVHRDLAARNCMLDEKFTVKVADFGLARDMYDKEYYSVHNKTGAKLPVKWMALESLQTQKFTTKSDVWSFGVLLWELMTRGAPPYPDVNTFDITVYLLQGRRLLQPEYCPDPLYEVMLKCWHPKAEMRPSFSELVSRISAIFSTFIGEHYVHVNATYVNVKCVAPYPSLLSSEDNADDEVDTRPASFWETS
Procedure: as §1, with “EBC-1” for “MKN-45”, “#JCRB0820)” for “#JCRB0254)”, “DMEM” for “RPMI 1640 media”
Fifteen thousand cells in DMEM supplemented with 0.5% characterized fetal bovine serum (FBS; Invitrogen, Carlsbad, Calif.) were added per well in a 96-well black clear bottom plate (Corning, Corning, N.Y.). Cells were then incubated overnight at 37 degrees Celsius, 5% CO2, 95% humidity. A serial dilution of test compound was dispensed into another 96-well black clear bottom plate (Corning, Corning, N.Y.) containing DMEM supplemented with 0.5% FBS. Diluted compound was then added to plates containing cells and incubated for 6 hours at 37 degrees Celsius, 5% CO2, 95% humidity. Cells were stimulated with 40 ng/mL HGF (R&D Systems, Minneapolis, Minn.) for 10 minutes, and then lysed. Phospho-MET in cell lysates was detected using the DuoSet IC Human Phospho-HGF R/c-MET ELISA (R&D Systems, Minneapolis, Minn.). Data was analyzed using Prism software (Graphpad, San Diego, Calif.) to calculate IC50 values.

[5] = relative to Example 1 = 1, listed as the '229 Compound
[6] = relative to Example 2 = 1, listed as the '229 Compound

T1 sequence (P08581 25-1390): as above

Row | SMILES | Fold potency decrease versus Example 1, MKN-45 p-MET ([1]; relative to Example 1 = 1) [×] | Fold potency decrease versus Example 2, MKN-45 p-MET ([1]; relative to Example 2 = 1) [×] | Fold potency decrease versus Example 1, cMET WT [2] [×] | Fold potency decrease versus Example 2, cMET WT [2] [×] | Fold potency decrease versus Example 1, MET (Y1248C) Mutant (MET (Y1248C) Mutant) [×] | Fold potency decrease versus Example 2, MET (Y1248C) Mutant (MET (Y1248C) Mutant) [×] | Fold potency decrease versus Example 1, MET (D1246N) Mutant (MET (D1246N) Mutant) [×] | Fold potency decrease versus Example 2, MET (D1246N) Mutant (MET (D1246N) Mutant) [×] | Fold potency decrease versus Example 1, MET (Y1248H) Mutant (MET (Y1248H) Mutant) [×] | Fold potency decrease versus Example 2, MET (Y1248H) Mutant (MET (Y1248H) Mutant) [×] | Fold potency decrease versus Example 1, MET (D1246H) Mutant (MET (D1246H) Mutant) [×] | Fold potency decrease versus Example 2, MET (D1246H) Mutant (MET (D1246H) Mutant) [×] | Fold less potent than Example 1 in the various oncogenic Mutant MET kinase biochemical assays [3] | Fold less potent than Example 2 in the various oncogenic Mutant MET kinase biochemical assays [3] | Fold potency decrease versus Example 1, A549 MIG (A549 cells; relative to Example 1 = 1) [×] | Fold potency decrease versus Example 2, A549 MIG (A549 cells; relative to Example 2 = 1) [×] | Fold potency decrease versus Example 1, EBC-1 p-MET ([4]; relative to Example 1 = 1) [×] | Fold potency decrease versus Example 2, EBC-1 p-MET ([4]; relative to Example 2 = 1) [×] | other results
1 | CCOc1ccn(-c2ccc(F)cc2)c(=O)c1C(=O)Nc1ccc(Oc2ccnc(N)c2Cl)c(F)c1 [The ′229 Compound] | 73.8 | 73.7 | 3.9 | 4.4 | 3.8 | 3.6 | 2 | 2.5 | 2.3 | 15.7 | 8.5 | 5.1 | 2.3-8.5 × | 2.5-15.7 × | 2.4 | 6.3 | 22.5 | 41.5 | Fold potency decrease versus Example 1, MKN-45 p-MET [1, 5]: 73.8 ×; Fold potency decrease versus Example 2, MKN-45 p-MET [1, 6]: 73.7 ×; Fold potency decrease versus Example 1, cMET WT ([2]; listed as the '229 Compound): 3.9 ×; Fold potency decrease versus Example 2, cMET WT ([2]; listed as the '229 Compound): 4.4 ×; Fold potency decrease versus Example 1, A549 MIG (A549 cells; [5]): 2.4 ×; Fold potency decrease versus Example 2, A549 MIG (A549 cells; [6]): 6.3 ×; Fold potency decrease versus Example 1, EBC-1 p-MET [4, 5]: 22.5 ×; Fold potency decrease versus Example 2, EBC-1 p-MET [4, 6]: 41.5 ×
2 | CCOc1ccn(-c2ccc(F)cc2)c(=O)c1C(=O)Nc1cc(F)c(Oc2ccnc(NC(=O)CC)c2)cc1F [Example 2, N-(2,5-difluoro-4-((2-propionamidopyridin-4-yl)oxy)phenyl)-4-ethoxy-1-(4-fluorophenyl)-2-oxo-1,2-dihydropyridine-3-carboxamide] |  | 1 |  | 1 |  | 1 |  | 1 |  | 1 |  | 1 |  |  |  | 1 |  | 1 | 
3 | CCOc1ccn(-c2ccc(F)cc2)c(=O)c1C(=O)Nc1cc(F)c(Oc2ccnc(N)c2)cc1F [Compound A, N-(4-((2-aminopyridin-4-yl)oxy)-2,5-difluorophenyl)-4-ethoxy-1-(4-fluorophenyl)-2-oxo-1,2-dihydropyridine-3-carboxamide] | 18.8 | 18.8 | 2.4 | 2.7 | 6 | 5.7 | 4.4 | 5.7 | 2.6 | 18.3 | 6.7 | 4 | 2.6-6.7 × | 4-18.3 × | 3.4 | 8.9 | 11.7 | 21.5 | 
4 | CCOc1ccn(-c2ccc(F)cc2)c(=O)c1C(=O)Nc1cc(F)c(Oc2ccnc(NC(C)=O)c2)cc1F [Example 1, N-(4-((2-acetamidopyridin-4-yl)oxy)-2,5-difluorophenyl)-4-ethoxy-1-(4-fluorophenyl)-2-oxo-1,2-dihydropyridine-3-carboxamide] | 1 |  | 1 |  | 1 |  | 1 |  | 1 |  | 1 |  |  |  | 1 |  | 1 |  | 
